From PubChem BioAssay (NCI)
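Five concentrations, 48 hours, 96-well plates. Here, GI50 denotes the concentration required for 50% inhibition of growth. Definition used: TGI = concentration required for complete inhibition of growth.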

How the values were obtained:
Assay in all cases: NCI tumour cell line growth inhibition, 48 h
MOLT-4 leukemia = test system: MOLT-4 leukemia
SF-295 CNS = test system: SF-295 CNS
LOX IMVI melanoma = test system: LOX IMVI melanoma
UACC-62 melanoma = test system: UACC-62 melanoma
SNB-19 CNS = test system: SNB-19 CNS
CCRF-CEM leukemia = test system: CCRF-CEM leukemia
HOP-92 NSCLC = test system: HOP-92 NSCLC
RXF 393 renal = test system: RXF 393 renal
COLO 205 colon = test system: COLO 205 colon
EKVX NSCLC = test system: EKVX NSCLC

SMILES	GI50 (MOLT-4 leukemia) [µM]	TGI (MOLT-4 leukemia) [µM]	GI50 (SF-295 CNS) [µM]	TGI (SF-295 CNS) [µM]	GI50 (LOX IMVI melanoma) [µM]	TGI (LOX IMVI melanoma) [µM]	GI50 (UACC-62 melanoma) [µM]	TGI (UACC-62 melanoma) [µM]	GI50 (SNB-19 CNS) [µM]	TGI (SNB-19 CNS) [µM]	GI50 (CCRF-CEM leukemia) [µM]	TGI (CCRF-CEM leukemia) [µM]	GI50 (HOP-92 NSCLC) [µM]	TGI (HOP-92 NSCLC) [µM]	GI50 (RXF 393 renal) [µM]	TGI (RXF 393 renal) [µM]	GI50 (COLO 205 colon) [µM]	TGI (COLO 205 colon) [µM]	GI50 (EKVX NSCLC) [µM]	TGI (EKVX NSCLC) [µM]
O=C1/C(=C/c2ccc([N+](=O)[O-])s2)Oc2ccc(Br)cc21	0.461	3.82	1.24	3.35	0.209	0.486	0.297	0.963	0.42	2.13	0.31	0.961	0.21	0.606	0.274	0.813	0.47	1.86		
CCOC(=O)c1c(C)n(Cc2ccc(Cl)cc2Cl)c2c1cc(O)c1[nH]c(Cc3ccccc3)nc12	2.3	5.27	5.92	26.2	1.89	3.66	18.6	34.1	5.54	23.1			1.77	4.16	2.4	5.23	5.04	30.1	9.49	22.3
COC(=O)C(C(=O)C(=O)Nc1nc2ccc(OC)cc2s1)c1cnc2ccccc2n1 (configuration not stated)		> 100		> 100		> 100		> 100		> 100				> 100		> 100		> 100		> 100
COc1cccc(C2=C(c3cn(C)c4c(C)cccc34)C(=O)NC2=O)c1	16.3	> 25	17.4	> 25	> 25	> 25	> 22.1	> 25	> 25	> 25	> 25	> 25	> 25	> 25	8.58	> 25	> 25	> 25		
O=C1CC[C@@H]2[C@H]3CCC(=O)c4c3c(c3cccc(O)c3c4O)O[C@@]23C(=O)c2cccc(O)c2C(O)=C13	> 100	> 100			> 100	> 100	> 100	> 100	> 100	> 100					> 100	> 100	> 100	> 100	> 100	> 100
